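Exposure lasted 48 hours, with cells grown in 96-well plates and compounds tested at five concentrations. GI50 = concentration required for 50% inhibition of growth. Definition used: TGI = concentration required for complete inhibition of growth.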
What was measured:
Test in all cases: inhibition of tumour cell growth, NCI panel, 48 h
[1] = test system: UACC-62 melanoma
[2] = test system: NCI-H226 lung
[3] = test system: CAKI-1 renal
[4] = test system: U251 CNS
[5] = test system: HCC-2998 colon
[6] = test system: OVCAR-5 ovarian
[7] = test system: BT-549 breast
[8] = test system: MOLT-4 leukemia
[9] = test system: NCI/ADR-RES ovarian
[10] = test system: NCI-H23 lung

SMILES	TGI [1] [µM]	TGI [2] [µM]	TGI [3] [µM]	TGI [4] [µM]	TGI [5] [µM]	TGI [6] [µM]	TGI [7] [µM]	TGI [8] [µM]	TGI [9] [µM]	TGI [10] [µM]	GI50 [1] [nM]	GI50 [2] [µM]	GI50 [3] [nM]	GI50 [4] [nM]	GI50 [5] [nM]	GI50 [6] [nM]	GI50 [7] [nM]	GI50 [8] [nM]	GI50 [9] [nM]	GI50 [10] [nM]
CC(=O)N1c2ccccc2C23CCN4CC5=CCOC(O)C(C5CC42)C13 (stereo not given)	> 100	> 100	> 100	> 100	> 100	> 100	> 100	> 100	> 100	> 100										
Cc1oc2c(c1C(=O)c1ccccc1)C(=O)c1ccccc1C2=O	7.72	23.3	9.12	21	29.1	31.5	19.9	6.38	20.7	8.36										
O=[N+]([O-])c1ccc2nc(N/N=C/c3ccc(O)cc3)sc2c1	37	62.8	81.5	67.5	> 100	> 100	> 100	> 100	> 100	> 100	4460	17.5	4070	4560	7080	18900	12300	2960	3860	5220
C/C=C(/C)C(=O)OC1C=C(CO)C(=O)C(OC(=O)/C(C)=C\C)C1C(C)C (stereo not given)	1.98	6.01	2.62	2.03	3.27	2.5	2.88	3.89	6.11	3.23	644	2.41	1340	708	1710	976	1450	335	1570	1500
O=C(N/N=C/c1cc2ccccc2c2ccccc12)c1cc(O)c(O)c(O)c1	9.4	28.4	19.1	14	22.4	25.7	16.8	18.2	> 100	14.3	2750	4.47	3720	2960	8540	8850	3740	3800	12400	3400
O=S(=O)(Nc1ccc(Cl)c(C(F)(F)F)c1)c1ccc(-c2cnc(C3CC3)o2)cc1	2.2	4.73	5.75	10.9	3.31	7.24	4.79	14.1	2.43	6.37	203	1.41	162	326	1090	1510	128	622	163	1370
O=[N+]([O-])c1ccc(N(CCO)CCO)c2c1no[n+]2[O-]	3.56	6.59	2.36	2.37	3.46	10.3	4	5.18	6.41	4.2	1240	2.01	471	655	1260	2780	1180	1270	1440	1230
CCN(C)S(=O)(=O)Nc1cccc(Nc2ncnc3cc(NC(=O)CCl)ccc23)c1Cl	4.46	12.6	8.5	1.64	9.57	6.76	6.66	8.83	> 25	7.88	1180	3.68	3150	611	3890	2620	2540	926	9170	2540

From PubChem BioAssay (NCI)
